What was measured:
[1] = test system: Trypanosoma congolense (T. congolense IL-3000 strain), bloodstream form; assay: Whole cell Alamar Blue assay, T. congolense (72 h in vitro); assay type: cell-based; conditions: Trypanosoma congolense, 72 h, T. congolense IL-3000, 72 h in vitro Alamar Blue assay
Method: (§1) Activity of compounds 1–71 against T. congolense and T. vivax was determined using the whole cell assays as described ^6 and their IC50 values are summarized in Table 1.
(§2) [6] Assay methods for determination of T. c. and T. v. […] Culture media consisted of complete HMI-9 (IMDM) with 20% bovine serum. To ensure log growth phase, trypanosomes were sub-cultured at appropriate dilutions every 2–3 days. Bloodstream form Trypanosoma vivax (T. vivax) cannot be cultured axenically, therefore trypanosomes (T. vivax STIB719/ILRAD 560 strain) were harvested from a highly parasitemia mouse via cardiac puncture and used directly in the ex vivo drug sensitivity assay on the same day. […] Parasite starting concentrations of 2 × 10^5 (T. c.) and 4 × 10^5 (T. v.) were calculated respectively, using a cell analyzer system or haemo-cytometer, followed by quantification at 536 nm excitation and 588 nm emission wavelengths using a […] reader. Test compounds were prepared as 10 mg/mL DMSO stocks for each assay run. Compounds were assayed in at least three separate, independent test runs and an 11-point dilution curve was used to determine the IC50 values. Data points were averaged to generate sigmoidal dose-response curves and IC50 values were determined using Softmax Pro 5.2 software.

[2] = test system: T. v. parasites (STIB719/ILRAD560 strain); assay: In vivo mouse model of T. vivax infection; parameters: species or system NMRI female mice; conditions: for Efficacy in mouse model T. v., n/m (mice survived / total mice in group): intraperitoneal, monitored 60 days post treatment; for curative efficacy in the T. v.-infected mouse model: single dose of 10 mg/kg, IP
Method: (§3) Selected compounds were screened in both mouse and bovine in vitro metabolic stability assays (mouse S9 and bovine S9), as summarized in Table 2. These two species were chosen because the primary in vivo assays were conducted in mice, and the target animal of this research program is cattle. […] We evaluated the efficacy of selected compounds in two in vivo mouse models of infection, against T. congolense and T. vivax, respectively. Mice were infected with either 1 × 10^5 T. c. parasites or 1 × 10^4 T. v. parasites, and then treated with a test compound via intraperitoneal administration for 1, 2 or 4 consecutive days. The mice were then monitored for the presence of parasitemia for up to 60 days post treatment.[7] We tested in T. c. model first, then followed up with T. v. for interesting compounds. […] We selected compound 5 (AN11736) to progress to exploratory studies to determine the efficacy and safety in a preliminary formulation against induced infections of T. vivax and T. congolense in cattle.[8]
(§4) [7] Methods for testing compound efficacy in mouse models: In vivo mouse efficacy studies were performed at the Swiss TPH, using established mouse models of infection for T. c. and T. v. NMRI female mice were independently infected either with 1 × 10^5T. c. parasites/mouse (STIB736/IL1180 strain) or 1 × 10^4T. v. parasites/mouse (STIB719/ILRAD560 strain) using an intraperitoneal route. Parasitemia was allowed to develop over 7 days (T. c.) or 3 days (T. v.), respectively, before treatment was administered. Compounds were administered via intraperitoneal injection in 10% DMSO/water. Four mice were used per treatment group. Mice were monitored for the presence of trypanosomes, via tail blood examination microscopically with twice-per-week parasitemia checks for 60 days post treatment. Parasitemia was graded on a scale of 0–3, with 0 indicating no trypanosomes seen in 20 fields of view, 1 indicating the presence of 1–5 trypanosomes per field, 2 indicating the presence of 6–20 trypanosomes per field and 3 indicating greater than 20 trypanosomes per field. Mice scoring 2 or 3 were immediately euthanized. After 60 days, aparasitemic mice were considered cured. Untreated control mice survive on average for 10 and 6 days post infection for T. c. and T. v., respectively. All in vivo mouse experiments were conducted in accordance with the strict guidelines set out by the Swiss Federal Veterinary Office, under the ethical approval of license number #2813.

[3] = test system: Trypanosoma vivax (T. vivax STIB719/ILRAD 560 strain), bloodstream form; assay: Whole cell Alamar Blue assay, T. vivax (48 h ex vivo); assay type: cell-based; conditions: T. vivax STIB719/ILRAD 560, 48 h ex vivo Alamar Blue assay; for IC50: Trypanosoma vivax
Method: as §1, §2

[4] = test system: T. c. parasites (STIB736/IL1180 strain); assay: In vivo mouse model of T. congolense infection; parameters: species or system NMRI female mice; conditions: for Efficacy in mouse model T. c., n/m (mice survived / total mice in group): intraperitoneal, monitored 60 days post treatment
Method: as §3, §4

[5] = In vitro metabolic stability, mouse S9; assay type: in vitro ADME; conditions: S9 fraction
Method: as §3

[6] = In vitro metabolic stability, bovine S9; assay type: in vitro ADME; conditions: S9 fraction
Method: as §3

Compound | IC50 [1] | Efficacy in mouse model T. v., n/m (mice survived / total mice in group) ([2]; 1 × 10 mg/kg) | Efficacy in mouse model T. v., n/m (mice survived / total mice in group) ([2]; 4 × 10 mg/kg) | IC50 [3] | Efficacy in mouse model T. c., n/m (mice survived / total mice in group) ([4]; 2 × 10 mg/kg) | Efficacy in mouse model T. v., n/m (mice survived / total mice in group) ([2]; 2 × 10 mg/kg) | curative efficacy in the T. v.-infected mouse model [2] | Efficacy in mouse model T. c., n/m (mice survived / total mice in group) ([4]; 1 × 5 mg/kg) | Efficacy in mouse model T. c., n/m (mice survived / total mice in group) ([4]; 1 × 10 mg/kg) | cure of T. c.-infected mice ([4]; single 5 mg/kg dose, IP) | microsomal CLint [5] | microsomal CLint [6] | IC50 (nM) T. v. [3] | curative efficacy in the T. c.-infected mouse model ([4]; single dose of 10 mg/kg, IP)
CC(C)[C@H](NC(=O)c1ccc2c(c1)B(O)OC2)C(=O)OCc1ccccc1 [Compound 2] | 2 nM | 1/5 | 5/5 | 2 nM | 0/5 (2 × 10) |  |  |  |  |  |  |  |  | 
Cc1c(C(=O)N[C@H](C(=O)OCc2ccccc2)C(C)C)ccc2c1B(O)OC2 [Compound 4] | 0.46 nM | 4/4 |  | 0.79 nM | 4/5 (2 × 10) | 5/5 |  |  |  |  |  |  |  | 
Cc1c(C(=O)N[C@H](C(=O)OCc2ccc(F)c(F)c2)C(C)C)ccc2c1B(O)OC2 [Compound 8] | 0.28 nM | 4/4 (1 × 10) |  | 0.07 nM |  |  | 100% | 0/4 | 4/4 | unable to cure | 7.9 µL/min/mg | 5.6 µL/min/mg |  | 
CC(C)[C@H](NC(=O)c1ccc2c(c1F)B(O)OC2)C(=O)OCc1ccc(F)cc1 [Compound 21] | 28 nM |  |  |  | 1/4 (2 × 10) | 4/4 (2 × 10) |  |  |  |  | < 1 µL/min/mg | < 1 µL/min/mg |  | 
CCc1c(C(=O)N[C@H](C(=O)OCc2ccc(F)cc2)C(C)C)ccc2c1B(O)OC2 [Compound 24] | 0.11 nM |  |  | 0.05 nM | 1/4 (2 × 10) |  |  |  |  |  | 21 µL/min/mg | 23 µL/min/mg |  | 
CC(C)c1c(C(=O)N[C@H](C(=O)OCc2ccc(F)cc2)C(C)C)ccc2c1B(O)OC2 [Compound 26] | 2.3 nM |  |  | 0.05 nM |  |  |  |  | 0/4 (1 × 10) |  | 32 µL/min/mg | 32 µL/min/mg |  | 
Cc1c(C(=O)N[C@H](C(=O)OCc2ccc(F)cc2)C(C)(C)O)ccc2c1B(O)OC2 [Compound 29] | 0.26 nM |  |  | 0.1 nM |  |  |  |  | 0/4 (1 × 10) |  | < 1 µL/min/mg | < 1 µL/min/mg |  | 
Cc1c(C(=O)NC(C(=O)OCc2ccc(F)cc2)C(C)(C)F)ccc2c1B(O)OC2 (centres unmarked) [Compound 30] | 0.09 nM |  |  | 0.25 nM |  |  |  |  | 0/4 (1 × 10) |  | 3.7 µL/min/mg | 3.1 µL/min/mg |  | 
Cc1c(C(=O)NC2(C(=O)OCc3ccc(F)cc3)CC2)ccc2c1B(O)OC2 [Compound 31] | 0.13 nM |  |  | 18 nM |  |  |  |  | 0/4 (1 × 10) |  | < 1 µL/min/mg | < 1 µL/min/mg | decreased activity | 
Cc1c(C(=O)N[C@H](C(=O)OCc2ccc(C(F)(F)F)nc2)C(C)C)ccc2c1B(O)OC2 [Compound 33] | 0.28 nM | 4/4 (1 × 10) |  | 26 nM |  |  | 100% |  | 3/4 (1 × 10) |  | 6.3 µL/min/mg | 2 µL/min/mg |  | 
Cc1c(C(=O)N[C@H](C(=O)OCc2ccc(C(F)(F)F)cn2)C(C)C)ccc2c1B(O)OC2 [Compound 34] | 0.14 nM | 4/4 (1 × 10) |  | 0.07 nM |  |  | 100% |  | 2/4 (1 × 10) |  | 11.8 µL/min/mg | 4.8 µL/min/mg |  | ≥ 50%
